This is an account of results in patent US20160108391A1, “REAGENT COMPOSITIONS HAVING PYRIDINE-CARBOXYLIC ACID-[…], AS WELL AS METHODS OF MAKING AND USING THE SAME” (Roche Diabetes Care, Inc., priority 2013, published 2016).

This test concerns glucose dehydrogenase mutant 2. The conditions noted are these: cNAD instead of NAD, increasing amounts of nicotinic acid. How it is done:
Methods: test elements with added nicotinic acid were prepared and analog to Example 1, but with adding coenzyme cNAD (see, Int'l Patent Application Publication No. WO 2007/012494) instead of NAD (same amount on molar basis).
Consequently, test elements were stored: (a) in open vials at 85% r.h. and 35° C., or (b) in closed vials with desiccant at 35° C.

Take `O=C(O)c1cccnc1` [nicotinic acid, pyridine-3-carboxylic acid]: the “stabilizing effect on remaining enzymatic activity, dry conditions” value (closed vials with desiccant at 35° C., FIG. 3b) is “significant stabilizing effect”. Further, where the note is “open vials at 85% r.h. and 35° C., FIG. 3a”, the “stabilizing effect on remaining enzymatic activity, humid conditions” value is listed as “significant stabilizing effect”.
